From patent publication US20110189204A1, “Treatment of Disease with Proteasone Inhibitors” (priority 2009, published 2011)

Experiments:
[1] = test system: 20S proteasome (chymotryptic activity) in whole blood; assay: 20S proteasome inhibition in whole blood, daily (5/7 days) dosing (TOX8394); format: in vivo, Cynomolgus monkeys
Experimental: (§1) For each study, the 20S proteasome activity in whole blood was determined, as described in Lightcap, Clin. Chem., 46:673 (2000). The chymotryptic activity was assayed by measuring the rate at which the proteasome hydrolyzed an amide bond in a small fluorescence tagged polypeptide substrate. The specific activity (Spa) was normalized to the amount of protein present in the lysate.

[2] = Plasma pharmacokinetics, daily (5/7 days) subcutaneous dosing (TOX8394)
[3] = in vivo
Experimental: (§2) For each study group, the following toxicological screening was performed: mortality, body weight, food consumption, clinical observations, ophthalmology, electrocardiography, hematology, serum biochemistry, urinalysis, injection site evaluations (erythema and edema), neurological examinations, histology, and peripheral neuropathy.

[4] = in vivo; conditions: both, cynomolgus monkey, plasma
Experimental: (§3) For bi-weekly dosing treatment (TOX 7345), a group of 3 male and 3 female Cynomolgus monkeys were dosed for 4 cycles.
(§4) The test substance and vehicle were freshly prepared on the day of use.
(§5) For each study, the values of the time to maximum plasma concentration (Tmax), the maximum plasma concentration (Cmax) were determined by visual inspection of the data. The area-under-the plasma-concentration-time curve (AUC) was estimated by the linear trapezoidal rule. Plasma samples were analyzed using a validated LC/MS/MS method with a lower quantification limit of about 0.5 ng/ml.

[5] = in vivo; conditions: both, cynomolgus monkey, plasma; remark: listed apart in the source
[6] = Toxicological screening, bi-weekly/weekly subcutaneous dosing (TOX7345)
Experimental: as §2

[7] = Plasma pharmacokinetics, bi-weekly/weekly subcutaneous dosing (TOX7345)
Experimental: as §3, §4, §5

[8] = test system: 20S proteasome (chymotryptic activity) in whole blood; assay: 20S proteasome inhibition in whole blood, bi-weekly/weekly dosing (TOX7345); format: in vivo, Cynomolgus monkeys
Experimental: as §1

[9] = day 3, 0.0166 mg/kg sc daily (5/7 days)
[10] = day 3, 0.0333 mg/kg sc daily (5/7 days)
[11] = day 3, 0.05 mg/kg sc daily (5/7 days)
[12] = day 54, 0.0166 mg/kg sc daily (5/7 days)
[13] = day 54, 0.0333 mg/kg sc daily (5/7 days)
[14] = day 54, 0.05 mg/kg sc daily (5/7 days)
[15] = both, cynomolgus monkey, in vivo
[16] = cynomolgus monkey, in vivo, 0.1 mg/kg
[17] = day 1, 0.075 mg/kg sc bi-weekly
[18] = day 32, 0.075 mg/kg sc bi-weekly
[19] = day 74, 0.075 mg/kg sc bi-weekly

CC(C)C[C@H](NC(=O)[C@H](Cc1ccccc1)NC(=O)c1cnccn1)B(O)O [bortezomib]
cumulative AUE (over 1 week), daily schedule higher than bi-weekly ([1]; 0.05 mg/kg daily vs 0.1 mg/kg bi-weekly): about 50%
AUE0-24 h ([1]; about 0.6 mg/m^2 once daily): 900 %. h
remaining 20S proteasome inhibition at the end of each 2-day drug-holiday ([1]; activity determined on various days before dosing): no indication for remaining 20S proteasome inhibition
highest inhibition (Emax) ([1]; daily schedule, 0.05 mg/kg): 73%
cumulative weekly AUE ([1]; daily schedule, about 0.6 mg/m^2): 4500 %. h
AUE0-24 h [1, 9]: 603 (77) % Inhibition · time
Emax (% proteasome inhibition) [1, 9]: 48%
Tmax (time of occurrence of Emax) [1, 9]: 30 min
AUE0-24 h [1, 10]: 685 (32) % Inhibition · time
Emax (% proteasome inhibition) [1, 10]: 58%
Tmax (time of occurrence of Emax) [1, 10]: 30 min
AUE0-24 h [1, 11]: 802 (67) % Inhibition · time
Emax (% proteasome inhibition) [1, 11]: 65%
Tmax (time of occurrence of Emax) [1, 11]: 30 min
AUE0-24 h [1, 12]: 481 (103) % Inhibition · time
Emax (% proteasome inhibition) [1, 12]: 38%
Tmax (time of occurrence of Emax) [1, 12]: 30 min
AUE0-24 h [1, 13]: 895 (125) % Inhibition · time
Emax (% proteasome inhibition) [1, 13]: 62%
Tmax (time of occurrence of Emax) [1, 13]: 30 min
AUE0-24 h [1, 14]: 1039 (114) % Inhibition · time
Emax (% proteasome inhibition) [1, 14]: 73%
Tmax (time of occurrence of Emax) [1, 14]: 30 min
time of maximal proteasome inhibition after dosing ([1]; on average, sc administration): about 0.5 h
Tmax [2, 9]: 0.138 (0.05) h
Tmax [2, 10]: 0.165 (0.07) h
Tmax [2, 11]: 0.203 (0.07) h
Tmax [2, 12]: 0.161 (0.07) h
Tmax [2, 13]: 0.184 (0.07) h
Tmax [2, 14]: 0.185 (0.07) h
Kidney weights ([3]; 0.05 mg/kg/dose, all monkeys): greater than kidney weights of control monkeys
Injection site histopathological finding ([3]; 0.05 mg/kg/dose, male and female): fibroplasia
Peripheral neuropathy: peripheral (sciatic, tibial and peroneal nerves) degeneration ([3]; 0.0333-0.05 mg/kg): peroneal nerves): minimal
Peripheral neuropathy: spinal cord dorsal funiculi (cervical & lumbar) ([3]; 0.0333-0.05 mg/kg): & lumbar) minimal degeneration
Clinical observations: faeces ([3]; 0.0333 or 0.05 mg/kg): Abnormal faeces (soft, liquid, 0.0333
MTD at 8 weeks [3, 15]: ~0.05 mg/kg
Body weight ([3]; cynomolgus monkey, in vivo): No body weight loss at any other
ECG, ophthalmology, rectal temperature or blood pressure ([3]; cynomolgus monkey, in vivo): No bortezomib-related changes
Electrocardiography ([3]; cynomolgus monkey, in vivo): No abnormalities found at any dose
Fibrinogen concentrations ([3]; cynomolgus monkey, in vivo): fibrinogen concentrations increased
Gross abnormalities at necropsy ([3]; cynomolgus monkey, in vivo): no gross abnormalities
Haemathology: mean platelet volume ([3]; cynomolgus monkey, in vivo): mean platelet volume increased
Haemathology: platelet numbers ([3]; cynomolgus monkey, in vivo): Platelet numbers decreased
Histology: BONE MARROW ([3]; cynomolgus monkey, in vivo): BONE MARROW: no findings
Histology: LYMPH NODES ([3]; cynomolgus monkey, in vivo): LYMPH NODES: no findings
Histology: SPLEEN ([3]; cynomolgus monkey, in vivo): SPLEEN: no findings
Ophthalmology ([3]; cynomolgus monkey, in vivo): No treatment related changes
Urinalysis ([3]; cynomolgus monkey, in vivo): No treatment related findings
Urinalysis parameters creatinine, inorganic phosphorus, ketones, protein and sodium ([3]; cynomolgus monkey, in vivo): Increases
Tolerability ([3]; cynomolgus monkey, in vivo, sc): well tolerated
Stool ([3]; multiple days, one male each at 0.0166 and 0.0333, one female at 0.05 mg/kg/dose): Soft stool
Body weight lost ([3]; nine male and female monkeys in the 0.0333 and 0.05 mg/kg/dose groups): 3-12%
No Observed Adverse Effect Level (NOAEL) ([3]; repeated five times weekly sc administration for 8 weeks): cannot be identified
AUC(0-t) ([4]; Cynomolgus, sc, 0.166 mg/kg): 229 ng·h/mL
Cmax ([4]; Cynomolgus, sc, 0.166 mg/kg): 158 ng/mL
Tmax ([4]; Cynomolgus, sc, 0.166 mg/kg): 13.8 min
Tmax ([4]; Cynomolgus, subcutaneous): ≤ 15 min
Cmax ([4]; sc, 0.075 mg/kg): 61.1 ng/mL
Cmax ([4]; sc, 0.1 mg/kg): 86.2 ng/mL
Tmax ([4]; sc, 0.1 mg/kg): 7.02 min
AUC(0-t) ([4]; sc, 0.166 mg/kg): 160 ng·h/mL
Cmax ([4]; sc, 0.166 mg/kg): 144 ng/mL
Tmax ([4]; sc, 0.166 mg/kg): 7.02 min
Tmax ([5]; Cynomolgus, subcutaneous): ≤ 15 min
Cmax ([5]; sc, 0.0166 mg/kg): 10.7 ng/mL
Tmax ([5]; sc, 0.0166 mg/kg): 8.88 min
Cmax ([5]; sc, 0.0333 mg/kg): 23.7 ng/mL
Tmax ([5]; sc, 0.0333 mg/kg): 6.96 min
Cmax ([5]; sc, 0.05 mg/kg): 34.2 ng/mL
Tmax ([5]; sc, 0.05 mg/kg): 12 min
Mortality ([6]; 0.166 mg/kg weekly, considered treatment related): 1 F (day 72), 1 M (day 79), at
MTD at 4 cycles [6, 15]: ~0.1 mg/kg
Peripheral neuropathy: focal axonal neurofiber degeneration, spinal cord (dorsal root ganglia) [6, 15]: 0.1/0.166 (weekly) mg/kg minimal
Body weight ([6]; cynomolgus monkey, in vivo): No body weight loss at other dose
Electrocardiography ([6]; cynomolgus monkey, in vivo): No abnormalities found at any
Haemathology ([6]; cynomolgus monkey, in vivo): No hematological changes related
Histology: PANCREAS ([6]; cynomolgus monkey, in vivo): PANCREAS: no findings
Histology: PROSTATE ([6]; cynomolgus monkey, in vivo): PROSTATE: no findings
Ophthalmology ([6]; cynomolgus monkey, in vivo): No treatment related changes
Urinalysis ([6]; cynomolgus monkey, in vivo): No treatment related findings
Histology: LYMPH NODES [6, 16]: LYMPH NODES: lymphoid atrophy
Histology: SPLEEN [6, 16]: SPLEEN: pulp, lymphoid atrophy
Mortality ([6]; other dose levels (0.075, 0.1 mg/kg bi-weekly)): No mortality at other dose levels
AUC0-72 h [7, 17]: 36.7 ng·h/mL
AUC0-72 h ([7]; day 1, 0.1 mg/kg sc bi-weekly): 77.5 ng·h/mL
AUC0-72 h [7, 18]: 110 ng·h/mL
Cmax [7, 18]: 58.8 ng/mL
Tmax [7, 18]: 15 min
AUC0-72 h ([7]; day 32, 0.1 mg/kg sc bi-weekly): 227 ng·h/mL
Tmax ([7]; day 32, 0.1 mg/kg sc bi-weekly): 7.14 min
AUC0-72 h ([7]; day 50, 0.166 mg/kg sc weekly): 205 ng·h/mL
Cmax ([7]; day 50, 0.166 mg/kg sc weekly): 168 ng/mL
AUC0-72 h [7, 19]: 122 ng·h/mL
Cmax [7, 19]: 70.1 ng/mL
Tmax [7, 19]: 8.34 min
AUC0-72 h ([7]; day 74, 0.1 mg/kg sc bi-weekly): 211 ng·h/mL
Cmax ([7]; day 74, 0.1 mg/kg sc bi-weekly): 113 ng/mL
Tmax ([7]; day 74, 0.1 mg/kg sc bi-weekly): 9.66 min
AUE0-72h ([8]; about 1.2 mg/m^2 bi-weekly): 1500 %. h
strongest inhibition (Emax) ([8]; bi-weekly regimen, 0.1 mg/kg): 74%
cumulative weekly AUE ([8]; bi-weekly schedule, about 1.2 mg/m^2): 3000 %. h
AUE0-24 h [8, 17]: 585 (87) % Inhibition · time
Emax (% proteasome inhibition) [8, 17]: 63%
Tmax (time of occurrence of Emax) [8, 17]: 30 min
AUE0-24 h ([8]; day 1, 0.1 mg/kg sc bi-weekly): 926 (99) % Inhibition · time
Emax (% proteasome inhibition) ([8]; day 1, 0.1 mg/kg sc bi-weekly): 74%
Tmax (time of occurrence of Emax) ([8]; day 1, 0.1 mg/kg sc bi-weekly): 30 min
AUE0-24 h ([8]; day 1, 0.166 mg/kg sc weekly): 931 (124) % Inhibition · time
Emax (% proteasome inhibition) ([8]; day 1, 0.166 mg/kg sc weekly): 78%
Tmax (time of occurrence of Emax) ([8]; day 1, 0.166 mg/kg sc weekly): 60 min
AUE0-24 h [8, 18]: 1086 (158) % Inhibition · time
Emax (% proteasome inhibition) [8, 18]: 68%
Tmax (time of occurrence of Emax) [8, 18]: 30 min
AUE0-24 h ([8]; day 32, 0.1 mg/kg sc bi-weekly): 1454 (201) % Inhibition · time
Emax (% proteasome inhibition) ([8]; day 32, 0.1 mg/kg sc bi-weekly): 71%
Tmax (time of occurrence of Emax) ([8]; day 32, 0.1 mg/kg sc bi-weekly): 30 min
AUE0-24 h ([8]; day 50, 0.166 mg/kg sc weekly): 2152 (222) % Inhibition · time
Emax (% proteasome inhibition) ([8]; day 50, 0.166 mg/kg sc weekly): 78%
Tmax (time of occurrence of Emax) ([8]; day 50, 0.166 mg/kg sc weekly): 30 min
AUE0-24 h [8, 19]: 1111 (116) % Inhibition · time
Emax (% proteasome inhibition) [8, 19]: 67%
Tmax (time of occurrence of Emax) [8, 19]: 30 min
AUE0-24 h ([8]; day 74, 0.1 mg/kg sc bi-weekly): 1584 (210) % Inhibition · time
Emax (% proteasome inhibition) ([8]; day 74, 0.1 mg/kg sc bi-weekly): 72%
Tmax (time of occurrence of Emax) ([8]; day 74, 0.1 mg/kg sc bi-weekly): 30 min
AUE0-24 h ([8]; day 78, 0.166 mg/kg sc weekly): 1468 (219) % Inhibition · time
Emax (% proteasome inhibition) ([8]; day 78, 0.166 mg/kg sc weekly): 77%
Tmax (time of occurrence of Emax) ([8]; day 78, 0.166 mg/kg sc weekly): 60 min
time of maximal proteasome inhibition after dosing ([8]; on average, sc administration): about 0.5 h
maximal inhibition ([8]; weekly 0.166 mg/kg dose group): 78%
